What was measured:
[1] = biological target: T1, SvLOX (Shewanella violacea, UniProt D4ZL63); assay: HPLC-MS and GC-MS of products; type: biochemical; details: 100 μM ARA, 0.1 mg/mL enzyme, pH 8.0, 20 °C, 1 min (HPLC-MS) or 15 min (GC-MS)
T1 construct: gene SVI_2441; SRPBCC domain + LOX domain
T1 sequence (D4ZL63 1-839): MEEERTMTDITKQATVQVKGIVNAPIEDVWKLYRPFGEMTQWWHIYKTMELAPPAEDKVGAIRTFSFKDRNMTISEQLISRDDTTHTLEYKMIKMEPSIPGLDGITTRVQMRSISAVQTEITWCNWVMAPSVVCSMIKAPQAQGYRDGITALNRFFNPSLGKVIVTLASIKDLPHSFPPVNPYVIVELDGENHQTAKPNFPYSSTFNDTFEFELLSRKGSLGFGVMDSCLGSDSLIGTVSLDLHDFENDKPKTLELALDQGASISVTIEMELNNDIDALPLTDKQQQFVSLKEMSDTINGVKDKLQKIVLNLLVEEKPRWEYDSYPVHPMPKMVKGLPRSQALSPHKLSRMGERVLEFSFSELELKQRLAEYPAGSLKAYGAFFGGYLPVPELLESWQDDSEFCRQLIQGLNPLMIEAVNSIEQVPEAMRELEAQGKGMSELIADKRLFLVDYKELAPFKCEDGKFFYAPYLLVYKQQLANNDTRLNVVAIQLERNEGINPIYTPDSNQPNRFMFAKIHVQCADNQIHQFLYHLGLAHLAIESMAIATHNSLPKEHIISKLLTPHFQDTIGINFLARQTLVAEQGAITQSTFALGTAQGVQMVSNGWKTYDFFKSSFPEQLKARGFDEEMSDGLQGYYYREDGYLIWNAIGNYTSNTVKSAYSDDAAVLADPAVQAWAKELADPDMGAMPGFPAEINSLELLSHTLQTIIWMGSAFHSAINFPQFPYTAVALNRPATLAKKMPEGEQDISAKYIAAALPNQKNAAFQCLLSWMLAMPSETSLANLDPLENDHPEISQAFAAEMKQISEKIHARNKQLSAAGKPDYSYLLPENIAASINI

[2] = biological target: T2, PhLOX (Pyropia haitanensis, UniProt J7JU42, F642V/F826L); details: 100 μM ALA, 0.1 mg/mL enzyme, pH 8.0, 20 °C, 15 min
T2 construct: gene lox
T2 sequence (J7JU42 entry or part of it F642V/F826L): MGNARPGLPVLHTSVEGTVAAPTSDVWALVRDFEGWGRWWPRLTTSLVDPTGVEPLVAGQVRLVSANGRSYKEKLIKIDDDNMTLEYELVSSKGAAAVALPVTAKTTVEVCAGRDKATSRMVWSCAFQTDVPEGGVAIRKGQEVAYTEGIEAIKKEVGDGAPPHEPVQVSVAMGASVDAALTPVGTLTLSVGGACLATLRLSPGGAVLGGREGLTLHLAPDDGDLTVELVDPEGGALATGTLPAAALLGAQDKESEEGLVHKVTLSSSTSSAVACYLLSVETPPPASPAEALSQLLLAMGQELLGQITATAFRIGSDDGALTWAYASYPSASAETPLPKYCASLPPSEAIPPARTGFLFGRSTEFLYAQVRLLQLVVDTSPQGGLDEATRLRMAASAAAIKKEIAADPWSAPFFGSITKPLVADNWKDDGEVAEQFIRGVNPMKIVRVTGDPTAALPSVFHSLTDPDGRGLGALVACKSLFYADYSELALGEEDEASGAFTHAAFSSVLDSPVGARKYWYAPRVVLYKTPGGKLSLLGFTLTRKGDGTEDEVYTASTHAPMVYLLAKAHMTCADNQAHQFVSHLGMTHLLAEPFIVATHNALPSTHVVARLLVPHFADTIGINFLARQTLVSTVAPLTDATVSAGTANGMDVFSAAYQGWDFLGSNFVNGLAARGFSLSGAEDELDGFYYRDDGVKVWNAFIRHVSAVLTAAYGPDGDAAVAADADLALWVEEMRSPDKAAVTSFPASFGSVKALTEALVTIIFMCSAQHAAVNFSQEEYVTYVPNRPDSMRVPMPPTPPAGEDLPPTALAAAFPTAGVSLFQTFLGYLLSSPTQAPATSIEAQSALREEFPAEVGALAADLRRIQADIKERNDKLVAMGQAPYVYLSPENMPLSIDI

[3] = biological target: T3, PhLOX (Pyropia haitanensis, UniProt J7JU42, F826L); details: 100 μM ALA, 0.1 mg/mL enzyme, pH 8.0, 20 °C, 15 min
T3 construct: gene lox
T3 sequence (J7JU42 entry or part of it F826L): as the sequence (J7JU42 entry or part of it F642V/F826L) above, with V642F counted along it

Compound | HPLC-MS and GC-MS of products [1] | HPLC-MS of products [2] | HPLC-MS of products [3]
CCCCC/C=C\C/C=C\C/C=C\C/C=C\CCCC(=O)O [arachidonic acid] | the incubation of ARA with SvLOX gave 12-hydroperoxy/hydroxy eicosatetraenoic acids | – | –
CC/C=C\C/C=C\C/C=C\CCCCCCCC(=O)O [α-linolenic acid] | – | When ALA was incubated with the F642V-F826L double mutant of PhLOX, 13-HpOTE was the dominating product | (ALA) was incubated with the F826L mutant of PhLOX, much more 9-HpOTE was formed

From article PMC11507377, “Intricate Evolution of Multifunctional Lipoxygenase in Red Algae” (International Journal of Molecular Sciences, 2024)
